Source: US20080194642A1, “HIGH DOSE, LONG-ACTING ECTOPARASITICIDE FOR EXTENDED CONTROL” (Wyeth, priority 2007, published 2008)

Columns and labels:
[1] = tested on: cat flea, Ctenocephalides felis; test: Duration of efficacy of high doses of ectoparasiticides against the cat flea in cats (Example 5); type: in vivo
From the text: In this evaluation, 32 domestic shorthair cats of mixed sex, aged at least 6 months, were used to test the high doses of ectoparasiticides disclosed herein. Cats were free of ectoparasiticide treatment for 60 days prior to administration of the experimental treatments. No drugs, baths, shampoos, or pesticides were given to the cats during the preconditioning phase or during the course of the study other than what is described in the protocol. At least 36 cats were preconditioned for 7 days. On day −7, each cat was infested with 100 unfed cat fleas, Ctenocephalides felis. On Day −5, each cat was thoroughly examined and combed to remove and count fleas. 32 cats were ranked in descending order by flea count. From the ranking, the cats were divided into four blocks of eight cats each. The eight cats within each of the four blocks were randomly allocated to treatment groups (A-H).
Applications for groups B-H were administered using a disposable syringe. The dose was applied as a single spot on the dorsal neck at the base of the skull. Group A was left untreated. […] On Days 1 through 14 following administration of the treatments, cats were observed daily for reactions and formulation acceptability. Thereafter, cats were observed once daily for the remainder of the study. Cats were infested with 100 adult cat fleas on Day 14 then examined for fleas on Day 16. The cats were re-infested and examined again on Days 28 and 30, on Days 56 and 58 then bi-weekly until efficacy waned. At each infestation, 100 unfed adult fleas were applied along the dorsal rump of each cat. The negative control group (Group A) was infested before the test compound groups. Fleas were recovered by examining and combing the groups in the same order. Combs were washed and rinsed with alcohol between cats, and latex gloves were changed between treatment groups.
(§1) Flea counts were transformed by log (count +1), and geometric means were used to calculate percent efficacy for the treatments using (Yc−Yt)/Yc*100, where Yc and Yt equal mean counts for control and treated groups, respectively.

[2] = tested on: cat flea, Ctenocephalides felis; test: Duration of control in dogs treated with ectoparasiticides at up to 3x the conventional dose against the cat flea (Example 6); type: in vivo
From the text: In this evaluation, 32 mixed breed male or female dogs, aged 1 to 10 years, were used. Dogs were not treated with an ectoparasiticide for 60 days prior to the study. No drugs, baths, shampoos or pesticides were given to the dogs during the preconditioning phase or during the course of the study other than what is described in the protocol. At least 36 dogs were preconditioned for 14 days. All dogs were bathed with noninsecticidal shampoo (Day −12 to −8). On Day −7, each dog was infested with 100 unfed cat fleas, Ctenocephalides felis. On Day −5, each dog was thoroughly examined and then combed to remove and count fleas. Dogs were selected for inclusion in the study on the basis of flea retention and/or behavior. The 32 dogs with the highest flea counts were selected for the study, except for exclusion of dogs deemed not easily handled. The dogs were blocked by flea number retained, and randomly allocated within blocks into 8 groups of 4 dogs.
Applications for Groups B-H were administered using disposable syringes. Each dog received a spot of the appropriate formulation to the skin (by syringe without a needle) at the dorsal midline between the shoulder blades. Group A was left untreated. […] Observations for post-treatment adverse reactions, skin irritation and behavior of test formulations were made at four hours following administration of treatments. Thereafter, dogs were observed once daily on Days 1-14 for formulation acceptability, adverse reactions, or signs of skin irritation following treatment. Daily observations of the physical condition of the animals were made throughout the trial.
Dogs were infested with 100 adult cat fleas, Ctenocephalides felis, on Day 14 and then examined for live fleas on Day 16. The dogs were re-infested/examined on Days 28/30, 56/58, 70/72, 84/86 and then infested and examined again at 2 week intervals until efficacy waned. At each infestation, 100 unfed adult fleas were applied along the lateral midline of each dog. The negative control group (Group A) was infested before the test compound groups. Fleas were recovered by examining and combing the groups in the same order. Combs were washed and rinsed with alcohol between dogs. Plastic gloves and aprons were changed between treatment groups.
as §1

[3] = 10 mg imidacloprid/kg spot-on, Day 16
[4] = 10 mg imidacloprid/kg spot-on, Day 30
[5] = 10 mg imidacloprid/kg spot-on, Day 58
[6] = 10 mg imidacloprid/kg spot-on, Day 72
[7] = 10 mg imidacloprid/kg spot-on, Day 86
[8] = 10 mg imidacloprid/kg spot-on, Day 100
[9] = 30 mg imidacloprid/kg spot-on, Day 16
[10] = 30 mg imidacloprid/kg spot-on, Day 30
[11] = 30 mg imidacloprid/kg spot-on, Day 58
[12] = 30 mg imidacloprid/kg spot-on, Day 72
[13] = 30 mg imidacloprid/kg spot-on, Day 86
[14] = 30 mg imidacloprid/kg spot-on, Day 100
[15] = 10 mg imidacloprid/kg (1×) spot-on, Day 16
[16] = 10 mg imidacloprid/kg (1×) spot-on, Day 30
[17] = 10 mg imidacloprid/kg (1×) spot-on, Day 58
[18] = 10 mg imidacloprid/kg (1×) spot-on, Day 72
[19] = 10 mg imidacloprid/kg (1×) spot-on, Day 86
[20] = 30 mg imidacloprid/kg (3×) spot-on, Day 16
[21] = 30 mg imidacloprid/kg (3×) spot-on, Day 30
[22] = 30 mg imidacloprid/kg (3×) spot-on, Day 58
[23] = 30 mg imidacloprid/kg (3×) spot-on, Day 72
[24] = 30 mg imidacloprid/kg (3×) spot-on, Day 86
[25] = 7.5 mg fipronil/kg spot-on, Day 16
[26] = 7.5 mg fipronil/kg spot-on, Day 30
[27] = 7.5 mg fipronil/kg spot-on, Day 58
[28] = 7.5 mg fipronil/kg spot-on, Day 72
[29] = 7.5 mg fipronil/kg spot-on, Day 86
[30] = 7.5 mg fipronil/kg spot-on, Day 100
[31] = 22.5 mg fipronil/kg spot-on, Day 16
[32] = 22.5 mg fipronil/kg spot-on, Day 30
[33] = 22.5 mg fipronil/kg spot-on, Day 58
[34] = 22.5 mg fipronil/kg spot-on, Day 72
[35] = 22.5 mg fipronil/kg spot-on, Day 86
[36] = 22.5 mg fipronil/kg spot-on, Day 100
[37] = 7 mg fipronil/kg (1×) spot-on, Day 16
[38] = 7 mg fipronil/kg (1×) spot-on, Day 30
[39] = 7 mg fipronil/kg (1×) spot-on, Day 58
[40] = 7 mg fipronil/kg (1×) spot-on, Day 72
[41] = 7 mg fipronil/kg (1×) spot-on, Day 86
[42] = 7 mg fipronil/kg (1×) spot-on, Day 100
[43] = 7 mg fipronil/kg (1×) spot-on, Day 114
[44] = 21 mg fipronil/kg (3×) spot-on, Day 16
[45] = 21 mg fipronil/kg (3×) spot-on, Day 30
[46] = 21 mg fipronil/kg (3×) spot-on, Day 58
[47] = 21 mg fipronil/kg (3×) spot-on, Day 72
[48] = 21 mg fipronil/kg (3×) spot-on, Day 86
[49] = 21 mg fipronil/kg (3×) spot-on, Day 100

`O=[N+]([O-])/N=C1\NCCN1Cc1ccc(Cl)nc1` [imidacloprid] was tested, and the “% Efficacy” value [1, 3] was 100.0%, the “Flea comb count, G.M.” value [1, 3] was 0.0 and the “% Efficacy” value [1, 4] was 98.5%. The “Flea comb count, G.M.” value [1, 4] was 1.0, the “% Efficacy” value [1, 5] was 81.4% and the “Flea comb count, G.M.” value [1, 5] was 10.0. The “% Efficacy” value [1, 6] was 84.8%, the “Flea comb count, G.M.” value [1, 6] was 10.0 and the “% Efficacy” value [1, 7] was 71.1%. The “Flea comb count, G.M.” value [1, 7] was 16.7, the “% Efficacy” value [1, 8] was 43.5% and the “Flea comb count, G.M.” value [1, 8] was 33.3. The “% Efficacy” value [1, 9] was 100.0%, the “Flea comb count, G.M.” value [1, 9] was 0.0 and the “% Efficacy” value [1, 10] was 99.5%. The “Flea comb count, G.M.” value [1, 10] was 0.3, the “% Efficacy” value [1, 11] was 100.0% and the “Flea comb count, G.M.” value [1, 11] was 0.0. The “% Efficacy” value [1, 12] was 99.0%, the “Flea comb count, G.M.” value [1, 12] was 0.7 and the “% Efficacy” value [1, 13] was 96.0%. For the same compound, the “Flea comb count, G.M.” value [1, 13] was 2.3, the “% Efficacy” value [1, 14] was 91.4% and the “Flea comb count, G.M.” value [1, 14] was 5.1. For the same compound, the “% Efficacy” value [2, 15] was 100.0%, the “Flea Counts/Dog/Day (Geometric Means)” value [2, 15] was 0.0 and the “% Efficacy” value [2, 16] was 100.0%. For the same compound, the “Flea Counts/Dog/Day (Geometric Means)” value [2, 16] was 0.0, the “% Efficacy” value [2, 17] was 98.1% and the “Flea Counts/Dog/Day (Geometric Means)” value [2, 17] was 1.5. The “% Efficacy” value [2, 18] was 80.3%, the “Flea Counts/Dog/Day (Geometric Means)” value [2, 18] was 15.4 and the “% Efficacy” value [2, 19] was 88.9%. The “Flea Counts/Dog/Day (Geometric Means)” value [2, 19] was 9.7, the “% Efficacy” value ([2]; 10 mg imidacloprid/kg (1×) spot-on, Day 100) was 78.3% and the “% Efficacy” value ([2]; 10 mg imidacloprid/kg (1×) spot-on, Day 114) was 52.6%. For the same compound, the “% Efficacy” value [2, 20] was 100.0%, the “Flea Counts/Dog/Day (Geometric Means)” value [2, 20] was 0.0 and the “% Efficacy” value [2, 21] was 100.0%. For the same compound, the “Flea Counts/Dog/Day (Geometric Means)” value [2, 21] was 0.0, the “% Efficacy” value [2, 22] was 100.0% and the “Flea Counts/Dog/Day (Geometric Means)” value [2, 22] was 0.0. For the same compound, the “% Efficacy” value [2, 23] was 97.0%, the “Flea Counts/Dog/Day (Geometric Means)” value [2, 23] was 2.4 and the “% Efficacy” value [2, 24] was 96.4%. The “Flea Counts/Dog/Day (Geometric Means)” value [2, 24] was 3.1, the “% Efficacy” value ([2]; 30 mg imidacloprid/kg (3×) spot-on, Day 100) was 96.8% and the “% Efficacy” value ([2]; 30 mg imidacloprid/kg (3×) spot-on, Day 114) was 96.6%. The “% Efficacy” value ([2]; 30 mg imidacloprid/kg (3×) spot-on, Day 128) was 94.5%.
In the case of `N#Cc1ccc(CC(=NNC(=O)Nc2ccc(OC(F)(F)F)cc2)c2cccc(C(F)(F)F)c2)cc1` (mixture of isomers) [metaflumizone, (E,Z)-2-[2-(4-cyanophenyl)-1-[3-(trifluoromethyl)phenyl]ethylidene]-N-[4-(tri-fluoromethoxy)phenyl]hydrazinecarboxamide], the “% Efficacy” value ([2]; metaflumizone 60 mg/kg (3×) spot-on, Day 128) is reported as 96.5%.
For `N#Cc1nn(-c2c(Cl)cc(C(F)(F)F)cc2Cl)c(N)c1[S+]([O-])C(F)(F)F` (stereo not shown) [fipronil], the “% Efficacy” value [1, 25] was 97.7%, the “Flea comb count, G.M.” value [1, 25] was 1.2 and the “% Efficacy” value [1, 26] was 96.4%. The “Flea comb count, G.M.” value [1, 26] was 2.3, the “% Efficacy” value [1, 27] was 78.8% and the “Flea comb count, G.M.” value [1, 27] was 11.5. For the same compound, the “% Efficacy” value [1, 28] was 81.1%, the “Flea comb count, G.M.” value [1, 28] was 12.5 and the “% Efficacy” value [1, 29] was 66.9%. For the same compound, the “Flea comb count, G.M.” value [1, 29] was 19.2, the “% Efficacy” value [1, 30] was 14.3% and the “Flea comb count, G.M.” value [1, 30] was 50.6. The “% Efficacy” value [1, 31] was 97.8%, the “Flea comb count, G.M.” value [1, 31] was 1.2 and the “% Efficacy” value [1, 32] was 100.0%. The “Flea comb count, G.M.” value [1, 32] was 0.0, the “% Efficacy” value [1, 33] was 93.8% and the “Flea comb count, G.M.” value [1, 33] was 3.4. For the same compound, the “% Efficacy” value [1, 34] was 94.7%, the “Flea comb count, G.M.” value [1, 34] was 3.5 and the “% Efficacy” value [1, 35] was 64.9%. The “Flea comb count, G.M.” value [1, 35] was 20.3, the “% Efficacy” value [1, 36] was 31.5% and the “Flea comb count, G.M.” value [1, 36] was 40.4. The “% Efficacy” value [2, 37] was 99.8%, the “Flea Counts/Dog/Day (Geometric Means)” value [2, 37] was 0.2 and the “% Efficacy” value [2, 38] was 99.8%. For the same compound, the “Flea Counts/Dog/Day (Geometric Means)” value [2, 38] was 0.2, the “% Efficacy” value [2, 39] was 100.0% and the “Flea Counts/Dog/Day (Geometric Means)” value [2, 39] was 0.0. For the same compound, the “% Efficacy” value [2, 40] was 96.9%, the “Flea Counts/Dog/Day (Geometric Means)” value [2, 40] was 2.4 and the “% Efficacy” value [2, 41] was 97.4%. For the same compound, the “Flea Counts/Dog/Day (Geometric Means)” value [2, 41] was 2.3, the “% Efficacy” value [2, 42] was 94.1% and the “Flea Counts/Dog/Day (Geometric Means)” value [2, 42] was 4.3. For the same compound, the “% Efficacy” value [2, 43] was 84.7%, the “Flea Counts/Dog/Day (Geometric Means)” value [2, 43] was 10.2 and the “% Efficacy” value [2, 44] was 100.0%. The “Flea Counts/Dog/Day (Geometric Means)” value [2, 44] was 0.0, the “% Efficacy” value [2, 45] was 100.0% and the “Flea Counts/Dog/Day (Geometric Means)” value [2, 45] was 0.0. The “% Efficacy” value [2, 46] was 90.7%, the “Flea Counts/Dog/Day (Geometric Means)” value [2, 46] was 7.5 and the “% Efficacy” value [2, 47] was 85.4%. For the same compound, the “Flea Counts/Dog/Day (Geometric Means)” value [2, 47] was 11.4, the “% Efficacy” value [2, 48] was 48.0% and the “Flea Counts/Dog/Day (Geometric Means)” value [2, 48] was 45.3. For the same compound, the “% Efficacy” value [2, 49] was 39.5% and the “Flea Counts/Dog/Day (Geometric Means)” value [2, 49] was 44.1.
